{"source": "patent US20220047514A1", "about": "“SOLID ORAL PHARMACEUTICAL COMPOSITIONS FOR CHRONOTROPIC ADMINISTRATION OF DIPEPTIDYL PEPTIDASE IV INHIBITORS” (priority 2018, published 2022)", "origin": "cited, not measured here", "key": {"DPP-8": {"target": "DPP-8 (Homo sapiens, UniProt Q6V1X1)", "sequence (Q6V1X1 whole entry)": "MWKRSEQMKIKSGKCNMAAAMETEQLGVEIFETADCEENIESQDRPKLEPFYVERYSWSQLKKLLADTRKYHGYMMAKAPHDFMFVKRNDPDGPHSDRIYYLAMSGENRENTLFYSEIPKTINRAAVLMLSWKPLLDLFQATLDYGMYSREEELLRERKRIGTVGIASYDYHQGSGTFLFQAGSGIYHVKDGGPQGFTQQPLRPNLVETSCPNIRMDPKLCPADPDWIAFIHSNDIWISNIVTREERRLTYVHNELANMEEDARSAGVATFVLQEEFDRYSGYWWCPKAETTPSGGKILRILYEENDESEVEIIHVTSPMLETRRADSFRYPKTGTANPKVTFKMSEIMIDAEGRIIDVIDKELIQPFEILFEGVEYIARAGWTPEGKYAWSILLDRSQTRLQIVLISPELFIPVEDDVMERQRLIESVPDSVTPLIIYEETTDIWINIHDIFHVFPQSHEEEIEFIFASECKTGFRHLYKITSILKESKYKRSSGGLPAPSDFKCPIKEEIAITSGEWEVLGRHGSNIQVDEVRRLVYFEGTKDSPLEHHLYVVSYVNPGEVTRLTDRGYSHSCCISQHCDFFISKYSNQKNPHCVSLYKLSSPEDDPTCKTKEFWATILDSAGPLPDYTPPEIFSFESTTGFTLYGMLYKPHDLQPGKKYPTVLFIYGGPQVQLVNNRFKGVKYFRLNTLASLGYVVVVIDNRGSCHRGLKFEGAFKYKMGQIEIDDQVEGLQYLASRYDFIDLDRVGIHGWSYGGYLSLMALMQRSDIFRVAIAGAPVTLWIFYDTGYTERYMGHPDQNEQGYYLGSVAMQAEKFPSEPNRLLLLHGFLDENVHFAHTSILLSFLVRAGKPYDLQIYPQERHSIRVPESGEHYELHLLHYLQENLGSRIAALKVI", "settings": "at therapeutic concentrations"}, "DPP-9": {"target": "DPP-9 (Homo sapiens, UniProt Q86TI2)", "sequence (Q86TI2 whole entry)": "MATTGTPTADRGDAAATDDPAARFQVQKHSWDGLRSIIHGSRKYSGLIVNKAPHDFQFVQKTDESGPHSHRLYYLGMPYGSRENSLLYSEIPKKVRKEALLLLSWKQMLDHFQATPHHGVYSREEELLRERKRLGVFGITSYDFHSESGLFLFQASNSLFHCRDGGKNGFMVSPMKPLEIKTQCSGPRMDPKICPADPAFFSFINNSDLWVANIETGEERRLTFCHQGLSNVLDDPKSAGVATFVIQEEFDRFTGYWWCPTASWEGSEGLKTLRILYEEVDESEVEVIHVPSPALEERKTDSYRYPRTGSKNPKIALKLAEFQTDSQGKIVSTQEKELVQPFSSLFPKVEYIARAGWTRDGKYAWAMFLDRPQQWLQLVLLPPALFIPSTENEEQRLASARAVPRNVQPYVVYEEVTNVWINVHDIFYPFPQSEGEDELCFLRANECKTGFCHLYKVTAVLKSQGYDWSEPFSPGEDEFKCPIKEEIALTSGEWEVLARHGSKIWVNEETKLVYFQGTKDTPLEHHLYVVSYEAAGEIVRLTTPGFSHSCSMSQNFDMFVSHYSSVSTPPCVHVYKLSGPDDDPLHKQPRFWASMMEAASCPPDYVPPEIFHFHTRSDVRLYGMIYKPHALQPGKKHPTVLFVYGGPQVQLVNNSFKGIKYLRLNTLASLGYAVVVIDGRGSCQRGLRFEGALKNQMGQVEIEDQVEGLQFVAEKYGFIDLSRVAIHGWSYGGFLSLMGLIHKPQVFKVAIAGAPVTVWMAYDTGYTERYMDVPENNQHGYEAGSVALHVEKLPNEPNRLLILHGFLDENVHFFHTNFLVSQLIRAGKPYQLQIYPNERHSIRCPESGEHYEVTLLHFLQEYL", "settings": "at therapeutic concentrations"}}, "data": [{"smiles": "N[C@@H](CC(=O)N1CCn2c(nnc2C(F)(F)F)C1)Cc1cc(F)c(F)cc1F", "note": "[Sitagliptin, sitagliptin]", "values": [{"measurement": "inhibition of the activity of DPP-8", "setting": "DPP-8", "result": "does not inhibit"}, {"measurement": "inhibition of the activity of DPP-9", "setting": "DPP-9", "result": "does not inhibit"}]}]}
